From ChEMBL document CHEMBL1201862, “PubChem BioAssay data set” (2004) come the findings set out here.

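All cell lines were grown in 96-well plates and treated with compound for 48 hours. Abbreviation: GI50, concentration required for 50% inhibition of growth.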 Active and inactive are the calls of the source. Rule as the data show it: active = GI50 up to about 1.1 µM and inactive = higher. Where a SMILES comes first, the peptide text is derived from it. Non-standard residues stand in square brackets, D forms with d. Residues, ends and D or L forms follow the SMILES beside them. The star is where a group is joined. *: point of attachment. NMeF = CN[CH](Cc1ccccc1)C(=O)O; NMeV = CN[CH](C(=O)O)C(C)C; Boc = CC(C)(C)OC(=O)*

What all share (assay): DTP human tumour cell line panel, 48 h
In assay [1] the test system is BT-549.
Assay [2] relates to SNB-78.
Assay [3] deals with M19-MEL.
Assay [4] deals with DMS-273.
Assay [5] relates to DMS-114.
The test system of assay [6] is RXF 631.
For assay [7], the system named is DLD-1.
Assay [8] deals with HOP-18.
Assay [9] has as its system XF498.

One may read the GI50 as the concentration at which growth is held to half of that of the control. Turning to `O=C(CCN1CCCCC1)Nc1ccc2sc3ccccc3c(=O)c2n1`, in [1], the GI50 is 15.5 µM (inactive).

Regarding `CCOC(=O)c1cn(C)c(=S)n2c1nc1ccccc12`, the GI50 in assay [1] was 97.3 µM (inactive).

For the molecule `Cc1nn(C(=O)c2ccccc2O)c2c1C(c1ccco1)SC(=N)N2` (stereo unspecified), the GI50 in assay [1] was > 10 µM (inactive).

On to `O=C(Nc1ccccc1)c1cc(S(=O)(=O)n2ccnc2O)c(S)cc1Cl`, for which, in assay [1], the GI50 is > 100 µM (inactive).

As to `CCOC(=O)C12OC(OCC)(CC1(OCC)OCC)C1(CC1)C2=O` (stereo unspecified), the GI50 in [1] is > 100 µM (inactive).

Turning to `Cc1cc(-c2c(Br)cc(C(=O)O)n2C)on1`, the GI50 in assay [1] is > 100 µM (inactive).

Take `COC1=CC(=O)c2c(c(COP(=O)(N(C)CCBr)N(C)CCBr)cn2C)C1=O`: the 50% growth inhibitory concentration (GI50) in [1] is 0.078 µM (active).

On to `O=C(CCO)OCCCCCC/C=C\CCCCCC/C=C\CCCCCCCCOC(=O)CCO`, for which the GI50 in assay [1] is 19 µM (inactive).

With `O=[N+]([O-])c1ccc(CSc2c3ccccc3nc3ccccc23)cc1`, in assay [1], the GI50 was 18.8 µM (inactive).

For `Oc1ccc(Cl)cc1/C=N/c1cnc2ccccc2c1`, in assay [1], the GI50 was 22.3 µM (inactive).

For the molecule `CC1CCCC(CC(=O)O)(CC(=O)O)C1` (stereo unspecified), in assay [1], the GI50 is > 100 µM (inactive).

With `CN(C)c1ccc(/C=C/C=C\c2cc(/C=C/C=C/c3ccc(N(C)C)cc3)[s+]c3ccccc23)cc1.[O-][Cl+3]([O-])([O-])[O-]`, the GI50 in assay [2] was 51.4 µM (inactive); in assay [3], 15.5 µM (inactive); in assay [4], 46.1 µM (inactive); in assay [5], 11.1 µM (inactive).

For the molecule `CCCCCCCCC/C=C1\CCC(CN(C)C)C1=O` (stereo unspecified), the GI50 in [6] is 2.07 µM (inactive); in assay [2], 2.37 µM (inactive); in [3], 1.86 µM (inactive); in assay [4] it was 1.69 µM (inactive); in [7], 2.06 µM (inactive); in [5], 2.26 µM (inactive).

Regarding `O=C(CC(=O)C1CCOC1=O)C(=O)Nc1cccc(Cl)c1` (stereo unspecified), the GI50 in assay [6], in assay [8], in [2], in assay [3], in [4] and in [7] was > 100 µM (inactive) throughout. In assay [5], the GI50 is > 100 µM (inactive).

For the molecule `Oc1ccc(Cl)cc1Cc1cc(Cl)cc(Cc2cc(Cl)ccc2O)c1O`, in assay [1], the GI50 was 2.79 µM (inactive).

Take `CCOC(=O)c1[nH]cc(C)c1-c1ccn(-c2ccccc2)c1`: in assay [1], the GI50 was 43.4 µM (inactive).

As for `CC(C)OP(=O)(OC(C)C)/C(C#N)=C/c1c[nH]c2ccccc12`, the GI50 in [1] was 31 µM (inactive).

Regarding `Cc1cc(C)[n+](CCOc2ccc(/C(=C(/Cl)c3ccccc3)c3ccccc3)cc2)c(C)c1.[O-][Cl+3]([O-])([O-])[O-]`, the GI50 in [9] is 0.256 µM (active); in assay [2], 2 µM (inactive); in assay [3] it was 0.495 µM (active); in assay [4], 0.366 µM (active); in assay [7], 3.47 µM (inactive); in assay [5], 1.29 µM (inactive).

On to `CNC1=C(C)C(=O)C(O)=C([C@H](C)CCC=C(C)C)C1=O`, for which the GI50 in [1] is 52.2 µM (inactive).

On to `CC(=O)C(CN(Cc1ccccc1)Cc1ccccc1)C(c1ccccc1)c1c(O)c2ccccc2oc1=O` (stereo unspecified), for which the GI50 in assay [6], in assay [9], in [2], in assay [3] and in assay [7] was > 100 µM (inactive) throughout.

For the molecule `COC(=O)c1cn(CCCC(=O)O)nn1`, the GI50 in assay [1] is > 100 µM (inactive).

Regarding `O=C(NC1CCN(Cc2ccccc2)CC1)c1ccccc1I`, the GI50 in [1] was 51.1 µM (inactive).

On to `Cc1sc2nc(-c3ccc([N+](=O)[O-])cc3)c(/C=N/N=C(N)N)n2c1C`, for which the GI50 in [1] was 1.41 µM (inactive).

Consider `CCOC(=O)c1ccc(N2C(=O)Cc3ccccc3C2=O)cc1`, for which the GI50 in assay [2], in assay [3], in [4] and in [5] was > 100 µM (inactive) in each case.

With `O=C1CC(n2ccnc2)c2c(Cl)sc(Cl)c21` (stereo unspecified), the GI50 in assay [1] was 15.3 µM (inactive).

Consider `O=C(c1ccco1)N(Cc1cccnc1)C(=S)N(Cc1cccnc1)C(=O)c1ccco1`, for which, in [1], the GI50 was 23.2 µM (inactive).

Turning to `COC(=O)c1ccc(/C=C/C2=CC(=O)C=CC2=O)cc1`, the GI50 in [1] is 5.81 µM (inactive).

For `COc1cc2c3c(c1OC)C1(C=CC(=O)C=C1)CC3N(C(=O)OC(C)(C)C(Cl)(Cl)Cl)CC2` (stereo unspecified), the GI50 in assay [9] is 8.69 µM (inactive); in assay [8] it was 22.8 µM (inactive); in assay [2], 14.4 µM (inactive); in assay [3], 10.8 µM (inactive); in [4] it was 9.38 µM (inactive); in assay [7], 8.45 µM (inactive). The GI50 in [5] is 7.55 µM (inactive).

`COc1ccc(/C=C2\CCS(=O)(=O)c3ccccc3C2=O)cc1`: in assay [1], the GI50 is 31.8 µM (inactive).

As for `N#CCCN(CCCN(C(=O)N(c1ccccc1)c1ccccc1)c1ccccc1)C(=O)Nc1ccccc1`, the GI50 in assay [1] was > 100 µM (inactive).

On to `COc1ccc(-c2cc(-c3ccncc3)nc(N)c2-c2ccc(F)cc2)cc1`, for which the GI50 in [1] is 37.4 µM (inactive).

As for `CCOC(=O)C(CC(C)C)NC(=O)C(Cc1ccccc1)NC(=O)CNC(=O)OC(C)(C)C` (stereo not drawn) (Boc-Gly-Phe-Leu-OEt; configuration not given here), the GI50 in assay [1] was 27.7 µM (inactive).

Turning to `C=C(Cl)c1c(OC)cccc1OCc1ccccc1`, in [1], the GI50 was > 100 µM (inactive).

As for `CN(C)C[C@H]1CC[C@@H](CN(C)C)C1=O`, the GI50 was 8.28 µM (inactive) in assay [9]; 8.02 µM (inactive) in assay [8]; 10.3 µM (inactive) in assay [2]; 8.83 µM (inactive) in [3]; 8.71 µM (inactive) in [4]; 7.46 µM (inactive) in [1]. Further, the GI50 in [7] was 3.94 µM (inactive); in [5], 8.47 µM (inactive).

On to `CCC(C)C(=O)OC1C(=O)OC2CC3C(C)=CC(=O)C(O)C3(C)C3C4(O)OCC23C1C(C)C4O` (stereo unspecified), for which the concentration for 50% growth inhibition (GI50) in assay [1] is < 0.017 µM (active).

In the case of `[N-]=[N+]=Nc1cc(=O)oc2ccccc12`, the GI50 is > 100 µM (inactive) in assay [8]; > 100 µM (inactive) in [3]; > 100 µM (inactive) in [4]; > 100 µM (inactive) in assay [7]; 42.2 µM (inactive) in assay [5].

For the molecule `CC(=O)Oc1c(C)c2c(c3ncccc13)OC(C)C2` (stereo unspecified), in assay [1], the GI50 is 21.1 µM (inactive).

On to `O=C(O)c1ccc(Oc2nc3ccccc3s2)cc1`, for which, in assay [1], the GI50 was > 100 µM (inactive).

Take `CC(C)C(NC(=O)OC(C)(C)C)C(=O)N(C)C(Cc1ccccc1)C(=O)N(C)C(C(=O)N(C)C(C(=O)O)C(C)C)C(C)C` (stereo unspecified) (Boc-V[NMeF][NMeV][NMeV]-OH; configuration not given here): the GI50 in [9], in assay [3], in [4] and in assay [5] was > 100 µM (inactive) throughout.

In the case of `c1ccc(/C(=N/Nc2ccccn2)c2ncccn2)cc1`, the GI50 in assay [1] was 11.5 µM (inactive).

`CCCCCCCCCCCCCCCCOc1ccc(/C=C/C2=[N+](CCCl)CCO2)cc1`: the GI50 in assay [1] is > 100 µM (inactive).

As for `O=C1C2=C(CCC2)Nc2cccc3ncn1c23`, the GI50 in assay [9] is 34.8 µM (inactive); in assay [8], 10.6 µM (inactive); in [2], > 100 µM (inactive); in assay [3], > 100 µM (inactive); in [4] it was > 100 µM (inactive); in assay [7] it was 51.9 µM (inactive). For the same molecule, the GI50 in assay [5] was > 100 µM (inactive).

As to `COc1cc2c(oc(=O)c3cc4ccoc4c(OC)c32)c2cccc(O)c12`, the GI50 in assay [9], in assay [8], in [2], in assay [3], in assay [4] and in assay [7] was > 100 µM (inactive) throughout. In assay [5], the GI50 is > 100 µM (inactive).

For the molecule `COC(=O)C1CCc2c(OC)ccc(OC)c2C1=O` (stereo unspecified), the GI50 in assay [8], in assay [2], in assay [3], in assay [4], in assay [7] and in [5] was > 100 µM (inactive) throughout.

Take `C[C@H]1[C@H](C)N1CC(O)Cn1ccnc1[N+](=O)[O-]` (stereo partly specified): the GI50 in assay [1] was > 100 µM (inactive).

Consider `CCOC(=O)Cc1ccc(Nc2nc3cc(C(F)(F)F)ccc3nc2C(=O)OCC)cc1`, for which the GI50 in [1] was 77.1 µM (inactive).

In the case of `CCOC(=O)/C(=C\c1c[nH]c2ccccc12)P(=O)(OCC)OCC`, the GI50 in [1] was 25.4 µM (inactive).

Take `CCN(CC)c1ccc2cc(C(=O)Nc3ccccc3OC)c(=N)oc2c1`: the GI50 in assay [1] was 26.6 µM (inactive).

Consider `CCOC(=O)Oc1cc2c(ccn2C)c2c1c1ccccc1n2C(=O)OCC`, for which, in [1], the GI50 was > 100 µM (inactive).

Turning to `O=C(O)Cc1ccc(Oc2nc3ccccc3nc2-c2cccs2)cc1`, in [1], the GI50 was 30.5 µM (inactive).

For the molecule `O=C(O)C(CS)NCc1c2ccccc2nc2ccccc12` (stereo unspecified), the GI50 in assay [6] was 22.3 µM (inactive); in assay [9], 15.5 µM (inactive); in assay [3], 34.9 µM (inactive); in assay [4] it was 27 µM (inactive); in [7], 24.4 µM (inactive).

As for `COc1cccc2c1OCC1Cc3ccccc3OC21` (stereo unspecified), the GI50 in assay [1] was 19.1 µM (inactive).

Consider `O=[N+]([O-])c1ccc(/C=N\N=c2/ccc([N+](=O)[O-])c[nH]2)cc1`, for which the GI50 in assay [1] was > 100 µM (inactive).

With `O=C(c1ccco1)N(C(=O)N1CCC(c2ccccc2)CC1)c1ccccc1`, in assay [1], the GI50 is 33.7 µM (inactive).

With `O=C(N/N=C\c1ccccc1)Nc1cccc2ccccc12`, the GI50 in [1] is 31 µM (inactive).

Turning to `COC(=O)N1CC[C@@H]2CCC=C(c3cccc4c3OCO4)[C@@H]21`, the GI50 in [1] was 81.5 µM (inactive).

Turning to `O=C1c2ccccc2C(=O)c2[nH]c(Cc3ccccc3F)nc21`, the GI50 was 53.1 µM (inactive) in assay [9]; 93.8 µM (inactive) in assay [8]; 34.6 µM (inactive) in assay [4]; 16.1 µM (inactive) in assay [7]; 33.7 µM (inactive) in [5].

Turning to `CCN1C(NN)=NS(=O)(=O)c2ccccc21`, the GI50 in assay [1] is > 100 µM (inactive).

For `CC1=C(C(=O)OC2CC3CCC2(C)C3(C)C)C2Nc3ccccc3N(C)C2O1` (stereo unspecified), the GI50 in assay [1] is 2.34 µM (inactive).

In the case of `CCC1CCc2c(c(=O)oc3c2cc(OC)c2cccc(OC)c23)C1` (stereo unspecified), the GI50 is 29.5 µM (inactive) in [9]; > 100 µM (inactive) in assay [8]; > 100 µM (inactive) in assay [2]; 55.8 µM (inactive) in assay [3]; 42.6 µM (inactive) in [4]; 48.3 µM (inactive) in [7].
